Measured values taken from paper PMC7170309, “Imidazopyridine-fused [1,3]diazepinones: modulations of positions 2 to 4 and their impacts on the anti-melanoma activity” (Journal of Enzyme Inhibition and Medicinal Chemistry, 2020).

Tests used:
Format in all cases: cell-based, human
MDA-MB-435 cells = experiment: Immunofluorescent staining for actin localisation (confocal microscopy); conditions: 5 µM, 20 h
Protocol: To evaluate the effect of compound treatment on cell morphology and stress actin fibres, an immunofluorescence imaging of cells was performed as previously described. MDA-MB-435 cells were seeded on cover slips in petri dishes and allowed to grow for 24 h. After cell growth, cells were treated with the vehicule (control cells) or with JMV5038, compound 5 or 8 at 5 µM for 20 h. Then cells were fixed using Antigenfix for 20 min and permeabilized using 0.2% Triton X-100 for 4 min at room temperature. Actin was stained using a primary human anti-actin antibody (made from mouse) and a secondary Alexa Fluor 568-conjugated goat anti-mouse antibody. Both of them were incubated 1 h at room temperature. Nuclei were counter-stained using Hoechst 33342. Representative images were obtained using a Zeiss LSM 780 inverted confocal microscopy. Confocal fluorescence microscopy was performed on fixed cells under a 543 nm wavelength excitation for AlexaFluor568, and 405 nm for nuclei, and visualised at 620 nm (red) and 450 nm (blue) respectively.
In our previous study, we reported that JMV5038 led to changes in the cell morphology, concomitant with a disruption of the actin network. Morphological changes in MDA-MB-435 cells induced by compounds 5 or 8 were investigated and compared to those induced by JMV5038. For this purpose, fixed and actin immunostained MDA-MB-435 cells were imaged by confocal microscopy (Figure 6). Control cells treated with DMSO (20 h, 5 µM concentration) were spread and the tensile forces of actin stress fibres stretched the cell-adhesive phenotype.

A549/ATCC = experiment: NCI-60 SRB assay, A549/ATCC (NSCLC); conditions: 10 µM, 48 h; for G%: growth vs untreated control
Protocol: (§1) Primary anticancer assay was performed on a panel of 60 human cancer cell lines derived from nine neoplastic diseases, in accordance with the protocol of the Drug Evaluation Branch, National Cancer Institute, Bethesda, Maryland, USA[22]. Cells were incubated with tested compounds at 10 µM for 48 h. The growth percentage was evaluated spectrophotometrically using a protein binding dye, SRB. Results for each tested compound were reported as the percent of growth of treated cells when compared to untreated control cells.
(§2) To better compare the activity profile of these two series of compounds, compounds 5 and 8 were selected and then evaluated towards a panel of sixty cancer cell lines corresponding to nine different cancer types, i.e. leukaemia, melanoma, as well as lung, colon, central nervous system, ovarian, renal, prostate and breast cancers (NCI evaluation). Indeed, it is now well established that the growth inhibitory patterns of anticancer drugs against the NCI-60 cell line panel correlated well with their modes of action. For example, compounds that bind to tubulin have similar growth inhibition patterns regardless of which site on tubulin they bind[30]. […] Compounds were tested using the sulforhodamine B (SRB) assay that provides a direct cell density index. The amount of dye incorporated by the cells increases with the increase of the total protein biomass. Cells were incubated for 48 h with compounds at 10 µM concentration, then cell growth was evaluated spectrophotometrically and presented as the percent of untreated control cells. Values of the most sensitive cell lines were compared to those obtained with JMV5038 (Figure 4, for all data see SI).

HOP-92 = experiment: NCI-60 SRB assay, HOP-92 (NSCLC); conditions: 10 µM, 48 h; for G%: growth vs untreated control;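 for Mean G% - G%: mean growth across the NCI-60 panel minus this line's growth with positive meaning more sensitive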
Protocol: as §1, §2

NCI-H522 = experiment: NCI-60 SRB assay, NCI-H522 (NSCLC); conditions: 10 µM, 48 h; for G%: growth vs untreated control
Protocol: as §1, §2

HCT-116 = experiment: NCI-60 SRB assay, HCT-116 (Colon Cancer); conditions: 10 µM, 48 h; for G%: growth vs untreated control
Protocol: as §1, §2

HCT-15 = experiment: NCI-60 SRB assay, HCT-15 (Colon Cancer); conditions: 10 µM, 48 h; for G%: growth vs untreated control
Protocol: as §1, §2

SF-268 = experiment: NCI-60 SRB assay, SF-268 (CNS Cancer); conditions: 10 µM, 48 h; for G%: growth vs untreated control
Protocol: as §1, §2

SF-295 = experiment: NCI-60 SRB assay, SF-295 (CNS Cancer); conditions: 10 µM, 48 h; for G%: growth vs untreated control
Protocol: as §1, §2

SF-539 = experiment: NCI-60 SRB assay, SF-539 (CNS Cancer); conditions: 10 µM, 48 h; for G%: growth vs untreated control
Protocol: as §1, §2

M14 = experiment: NCI-60 SRB assay, M14 (Melanoma); conditions: 10 µM, 48 h; for G%: growth vs untreated control
Protocol: as §1, §2

MDA-MB-435 = experiment: NCI-60 SRB assay, MDA-MB-435 (Melanoma); conditions: 48 h; for Mean G% - G% / G%: MDA-MB-435, 10 µM, SRB; for G%: growth vs untreated control;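 for Mean G% - G%: mean growth across the NCI-60 panel minus this line's growth with positive meaning more sensitive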
Protocol: as §1, §2

SK-MEL-5 = experiment: NCI-60 SRB assay, SK-MEL-5 (Melanoma); conditions: 10 µM, 48 h; for G%: growth vs untreated control
Protocol: as §1, §2

UACC-62 = experiment: NCI-60 SRB assay, UACC-62 (Melanoma); conditions: 10 µM, 48 h; for G%: growth vs untreated control
Protocol: as §1, §2

IGROV1 = experiment: NCI-60 SRB assay, IGROV1 (Ovarian Cancer); conditions: 10 µM, 48 h; for G%: growth vs untreated control
Protocol: as §1, §2

OVCAR-4 = experiment: NCI-60 SRB assay, OVCAR-4 (Ovarian Cancer); conditions: 10 µM, 48 h; for G%: growth vs untreated control;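 for Mean G% - G%: mean growth across the NCI-60 panel minus this line's growth with positive meaning more sensitive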
Protocol: as §1, §2

OVCAR-5 = experiment: NCI-60 SRB assay, OVCAR-5 (Ovarian Cancer); conditions: 10 µM, 48 h; for G%: growth vs untreated control;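 for Mean G% - G%: mean growth across the NCI-60 panel minus this line's growth with positive meaning more sensitive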
Protocol: as §1, §2

SK-OV-3 = experiment: NCI-60 SRB assay, SK-OV-3 (Ovarian Cancer); conditions: 10 µM, 48 h; for G%: growth vs untreated control
Protocol: as §1, §2

SN12C = experiment: NCI-60 SRB assay, SN12C (Renal Cancer); conditions: 10 µM, 48 h; for G%: growth vs untreated control
Protocol: as §1, §2

DU-145 = experiment: NCI-60 SRB assay, DU-145 (Prostate Cancer); conditions: 10 µM, 48 h; for G%: growth vs untreated control
Protocol: as §1, §2

BT-549 = experiment: NCI-60 SRB assay, BT-549 (Breast Cancer); conditions: 10 µM, 48 h; for G%: growth vs untreated control
Protocol: as §1, §2

CCRF-CEM = experiment: NCI-60 SRB assay, CCRF-CEM (Leukemia); conditions: 10 µM, 48 h; for G%: growth vs untreated control
Protocol: as §1, §2

C[C@@H]1NC(c2csc3ccccc23)=Nc2nc3ccccn3c2C1=O [Compound 8, (4S)-4-methyl-2-benzothiophen-3-yl-3,4-dihydro-5H-pyrido[1’,2’:1,2]imidazo[4,5-d][1,3]diazepin-5-one]
morphological changes / actin network (MDA-MB-435 cells): disorganisation of the actin cytoskeleton | Mean G% - G% (A549/ATCC): 8,10% | G% (A549/ATCC): 66,77% | Mean G% - G% (HOP-92): 34,61% | G% (HOP-92): 40,26% | Mean G% - G% (NCI-H522): -20,45% | G% (NCI-H522): 95,32% | Mean G% - G% (HCT-116): 2,74% | G% (HCT-116): 72,13% | Mean G% - G% (HCT-15): -1,17% | G% (HCT-15): 76,04% | Mean G% - G% (SF-268): 8,82% | G% (SF-268): 66,05% | Mean G% - G% (SF-295): -8,66% | G% (SF-295): 83,53% | Mean G% - G% (SF-539): -1,87% | G% (SF-539): 76,74% | Mean G% - G% (M14): -16,75% | G% (M14): 91,62% | Mean G% - G% (MDA-MB-435): -0,17% | G% (MDA-MB-435): 75,04% | Mean G% - G% (SK-MEL-5): 12,92% | G% (SK-MEL-5): 61,95% | Mean G% - G% (UACC-62): -12,07% | G% (UACC-62): 86,94% | Mean G% - G% (IGROV1): 14,89% | G% (IGROV1): 59,98% | Mean G% - G% (OVCAR-4): 0,79% | G% (OVCAR-4): 74,08% | Mean G% - G% (OVCAR-5): -32,82% | G% (OVCAR-5): 107,69% | Mean G% - G% (SK-OV-3): 7,58% | G% (SK-OV-3): 67,29% | Mean G% - G% (SN12C): -9,24% | G% (SN12C): 84,11% | Mean G% - G% (DU-145): 2,24% | G% (DU-145): 72,63% | Mean G% - G% (BT-549): -11,85% | G% (BT-549): 86,72%

[N-]=[N+]=NCCCC[C@@H]1NC(c2ccc(Br)cc2)=Nc2nc3ccccn3c2C1=O [Compound 16, (4S)-4-(4-azidobutyl)-2-(4-bromophenyl)-3,4-dihydro-5H-pyrido[1’,2’:1,2]imidazo[4,5-d][1,3]diazepin-5-one]
Mean G% - G% (CCRF-CEM): -6,17% | G% (CCRF-CEM): 97,94% | Mean G% - G% (A549/ATCC): 16,61% | G% (A549/ATCC): 75,16% | Mean G% - G% (HOP-92): -11,05% | G% (HOP-92): 102,82% | Mean G% - G% (NCI-H522): 7,01% | G% (NCI-H522): 84,76% | Mean G% - G% (HCT-116): -1,04% | G% (HCT-116): 92,81% | Mean G% - G% (HCT-15): -6,56% | G% (HCT-15): 98,33% | Mean G% - G% (SF-268): 1,04% | G% (SF-268): 90,73% | Mean G% - G% (SF-295): -4,02% | G% (SF-295): 95,79% | Mean G% - G% (SF-539): -6,24% | G% (SF-539): 98,01% | Mean G% - G% (M14): -14,11% | G% (M14): 105,88% | Mean G% - G% (MDA-MB-435): -13,77% | G% (MDA-MB-435): 105,54% | Mean G% - G% (SK-MEL-5): 3,83% | G% (SK-MEL-5): 87,94% | Mean G% - G% (UACC-62): 11,94% | G% (UACC-62): 79,83% | Mean G% - G% (IGROV1): 70,16% | G% (IGROV1): 21,61% | Mean G% - G% (OVCAR-4): -2,91% | G% (OVCAR-4): 94,68% | Mean G% - G% (OVCAR-5): -11,70% | G% (OVCAR-5): 103,47% | Mean G% - G% (SK-OV-3): 5,78% | G% (SK-OV-3): 85,99% | Mean G% - G% (SN12C): -4,64% | G% (SN12C): 96,41% | Mean G% - G% (DU-145): -10,18% | G% (DU-145): 101,95% | Mean G% - G% (BT-549): -13,82% | G% (BT-549): 105,59%

C[C@@H]1NC(c2ccc(N=[N+]=[N-])cc2)=Nc2nc3ccccn3c2C1=O [Compound 5, (4S)-4-methyl-2-(4-azidophenyl)-3,4-dihydro-5H-pyrido[1’,2’:1,2]imidazo[4,5-d][1,3]diazepin-5-one]
morphological changes / actin network (MDA-MB-435 cells): disorganisation of the actin cytoskeleton | Mean G% - G% (CCRF-CEM): -12,13% | G% (CCRF-CEM): 97,39% | Mean G% - G% (A549/ATCC): -3,81% | G% (A549/ATCC): 89,07% | Mean G% - G% (HOP-92): -17,00% | G% (HOP-92): 102,26% | Mean G% - G% (NCI-H522): 13,32% | G% (NCI-H522): 71,94% | Mean G% - G% (HCT-116): -2,45% | G% (HCT-116): 87,71% | Mean G% - G% (HCT-15): 16,87% | G% (HCT-15): 68,39% | Mean G% - G% (SF-268): -12,35% | G% (SF-268): 97,61% | Mean G% - G% (SF-295): -8,18% | G% (SF-295): 93,44% | Mean G% - G% (SF-539): -2,57% | G% (SF-539): 87,83% | Mean G% - G% (M14): 3,28% | G% (M14): 81,98% | inhibition at 10 µM (MDA-MB-435; Homo sapiens, MDA-MB-435, NCI-60 SRB, read-out: growth inhibition percentage): 87% | Mean G% - G% (MDA-MB-435): 72,64% | G% (MDA-MB-435): 12,62% | Mean G% - G% (SK-MEL-5): 14,40% | G% (SK-MEL-5): 70,86% | Mean G% - G% (UACC-62): 17,97% | G% (UACC-62): 67,29% | Mean G% - G% (IGROV1): 10,76% | G% (IGROV1): 74,50% | Mean G% - G% (OVCAR-4): -3,32% | G% (OVCAR-4): 88,58% | Mean G% - G% (OVCAR-5): -22,84% | G% (OVCAR-5): 108,10% | Mean G% - G% (SK-OV-3): -1,19% | G% (SK-OV-3): 86,45% | Mean G% - G% (SN12C): -18,28% | G% (SN12C): 103,54% | Mean G% - G% (DU-145): -18,38% | G% (DU-145): 103,64% | Mean G% - G% (BT-549): -10,11% | G% (BT-549): 95,37%
